Results: patent publication US11332452B2, “Pesticidal compositions and methods” (priority 2019, dated 2022)

How the values were obtained:
Format in all cases: in vivo
[1] = tested on: Beet Armyworm (Spodoptera exigua, LAPHEG); test: Insecticidal test for beet armyworm (BAW), 128-well diet tray assay; conditions: 168 h, 50 μg/cm^2 of test compound on artificial diet, second instar larvae, 25° C., five to seven days, average of eight wells, read-out: BAW % Control (or Mortality) rating
Description: Insecticidal Test for Beet Armyworm (Spodoptera exigua, LAPHEG) (“BAW”)
(§1) Bioassays on beet armyworm (BAW; Spodoptera exigua: Lepidoptera) are conducted using a 128-well diet tray assay. One to five second instar BAW larvae are placed in each well (3 mL) of the diet tray that had been previously filled with 1 mL of artificial diet to which 50 μg/cm^2 of the test compound (dissolved in 50 μL of 90:10 acetone-water mixture) had been applied (to each of eight wells) and then allowed to dry. Trays are covered with a clear self-adhesive cover, vented to allow gas exchange, and held at 25° C., 14:10 light-dark for five to seven days. Percent mortality is recorded for the larvae in each well; activity in the eight wells is then averaged.

[2] = tested on: Cabbage Looper (Trichloplusia Ni, TRIPNI); test: Insecticidal test for cabbage looper (CL), 128-well diet tray assay; conditions: Trichoplusia ni, 168 h, read-out: CL % Control (or Mortality) rating
Description: Insecticidal Test for Cabbage Looper (Trichloplusia Ni, TRIPNI) (“CL”)
as §1, with “cabbage looper (CL; Trichloplusia ni:” for “beet armyworm (BAW; Spodoptera exigua:”, “CL” for “BAW”

[3] = tested on: Yellow Fever Mosquito (Aedes aegypti, AEDSAE); test: Insecticidal test for yellow fever mosquito (YFM), 96-well plate larval assay; conditions: from 4000 ppm DMSO master solution, diluted; about 1 day-old larvae; room temperature; scored after 3 days
Description: Insecticidal Test for Yellow Fever Mosquito (Aedes aegypti, AEDSAE) (“YFM”)
Master plates containing 400 μg of a molecule dissolved in 100 μL of dimethyl sulfoxide (DMSO) (equivalent to a 4000 ppm solution) are used. A master plate of assembled molecules contains 15 μL per well. To this plate, 135 μL of a 90:10 water/acetone mixture is added to each well. A robot (Biomek® NXP Laboratory Automation Workstation) is programmed to dispense 15 μL aspirations from the master plate into an empty 96-well shallow plate (“daughter” plate). There are 6 reps (“daughter” plates) created per master. The created “daughter” plates are then immediately infested with YFM larvae.
The day before plates are to be treated, mosquito eggs are placed in Millipore water containing liver powder to begin hatching (4 g. into 400 mL). After the “daughter” plates are created using the robot, they are infested with 220 μL of the liver powder/larval mosquito mixture (about 1 day-old larvae). After plates are infested with mosquito larvae, a non-evaporative lid is used to cover the plate to reduce drying. Plates are held at room temperature for 3 days prior to grading. After 3 days, each well is observed and scored based on mortality.

Structure (SMILES) | mortality at 50 µg/cm2 [1] | mortality at 50 µg/cm2 [2] | YFM % Control (or Mortality) rating [3]
CCCc1ccc(OC)cc1N1C(=O)CS/C1=N\C(=O)NC(C)Cc1ccc(NC(=O)Nc2ccc(OC(F)(F)F)cc2)cc1 (stereo not drawn) [Compound A37, (Z)-1-(4-(2-(3-(3-(5-Methoxy-2-propylphenyl)-4-oxothiazolidin-2-ylidene)ureido)propyl)phenyl)-3-(4-(trifluoromethoxy)phenyl)urea] | 50 to 100% | 50 to 100% | B (More than 0-Less than 80)
Cc1ccc(C(C)C)c(-n2ccs/c2=N\C(=O)NC(C)Cc2ccc(NC(=O)Nc3ccc(OC(F)(F)F)cc3)cc2)c1 (stereo not drawn) [Compound A33, (Z)-1-(4-(2-(3-(3-(2-Isopropyl-5-methylphenyl)thiazol-2(3H)-ylidene)ureido)propyl)phenyl)-3-(4-(trifluoromethoxy)phenyl)urea] | 50 to 100% | 50 to 100% | A (80-100)
Cc1ccc(C(C)C)c(N2C(=O)CS/C2=N\C(=O)NCCc2ccc(NC(=O)Nc3ccc(C(F)(F)F)cc3)cc2)c1 [Compound A9, (Z)-1-(4-(2-(3-(3-(2-isopropyl-5-methylphenyl)-4-oxothiazolidin-2-ylidene)ureido)ethyl)phenyl)-3-(4-(trifluoromethyl)phenyl)urea] | 50 to 100% | 50 to 100% | A (80-100)
Cc1cc(N2C(=O)CS/C2=N\C(=O)NCCc2ccc(NC(=O)Nc3ccc(OC(F)(F)F)cc3)cc2)c(C(C)C)cc1F [Compound A25, (Z)-1-(4-(2-(3-(3-(4-Fluoro-2-isopropyl-5-methylphenyl)-4-oxothiazolidin-2-ylidene)ureido)ethyl)phenyl)-3-(4-(trifluoromethoxy)phenyl)urea] | 50 to 100% | 50 to 100% | A (80-100)
Cc1ccc(C(C)C)c(N2C(=O)CS/C2=N\C(=O)Nc2ccc(NC(=S)Nc3ccc(OC(F)(F)F)cc3)cc2)c1 [Compound A45, (Z)-1-(3-(2-isopropyl-5-methylphenyl)-4-oxothiazolidin-2-ylidene)-3-(4-(3-(4-(trifluoromethoxy)phenyl)thioureido)phenyl)urea] | 50 to 100% | 50 to 100% | A (80-100)
Cc1ccc(C(C)C)c(N2C(=O)CS/C2=N\C(=O)Nc2ccc(N/N=C/c3ccc(OC(F)(F)F)cc3)cc2)c1 [Compound A55, 1-((Z)-3-(2-Isopropyl-5-methylphenyl)-4-oxothiazolidin-2-ylidene)-3-(4-(2-((E)-4-(trifluoromethoxy)benzylidene)hydrazinyl)phenyl)urea] | 50 to 100% | 50 to 100% | A (80-100)
CCCc1ccc(OC)cc1N1C(=O)CS/C1=N\C(=O)NCCc1ccc(NC(=O)Nc2ccc(OC(F)(F)F)cc2)cc1 [Compound A18, (Z)-1-(4-(2-(3-(3-(5-Methoxy-2-propylphenyl)-4-oxothiazolidin-2-ylidene)ureido)ethyl)phenyl)-3-(4-(trifluoromethoxy)phenyl)urea] | 50 to 100% | 50 to 100% | B (More than 0-Less than 80)
CCC(C)Oc1ccc(C)cc1N1C(=O)CS/C1=N\C(=O)NC(C)Cc1ccc(NC(=O)Nc2ccc(C(F)(F)F)cc2)cc1 (stereo not drawn) [Compound A30, (Z)-1-(4-(2-(3-(3-(2-(sec-Butoxy)-5-methylphenyl)-4-oxothiazolidin-2-ylidene)ureido)propyl)phenyl)-3-(4-(trifluoromethyl)phenyl)urea] | 50 to 100% | 50 to 100% | B (More than 0-Less than 80)
CC(Cc1ccc(NC(=O)Nc2ccc(C(F)(F)F)cc2)cc1)NC(=O)/N=C1\SCC(=O)N1c1ccccc1C(C)C (stereo not drawn) [Compound A28, (Z)-1-(4-(2-(3-(3-(2-Isopropylphenyl)-4-oxothiazolidin-2-ylidene)ureido)propyl)phenyl)-3-(4-(trifluoromethyl)phenyl)urea] | 50 to 100% | 50 to 100% | A (80-100)
COc1ccc(N2C(=O)CS/C2=N\C(=O)NC(C)Cc2ccc(NC(=O)Nc3ccc(C(F)(F)F)cc3)cc2)c(C)c1 (stereo not drawn) [Compound A31, (Z)-1-(4-(2-(3-(3-(4-Methoxy-2-methylphenyl)-4-oxothiazolidin-2-ylidene)ureido)propyl)phenyl)-3-(4-(trifluoromethyl)phenyl)urea] | 0 to 50% | 50 to 100% | A (80-100)
Cc1ccc(C(C)C)c(N2C(=O)CS/C2=N\C(=O)Nc2ccc(CNC(=O)Nc3ccc(OC(F)(F)F)cc3)cc2)c1 [Compound A43, (Z)-1-(4-(3-(3-(2-isopropyl-5-methylphenyl)-4-oxothiazolidin-2-ylidene)ureido)benzyl)-3-(4-(trifluoromethoxy)phenyl)urea] | 50 to 100% | 50 to 100% | A (80-100)
Cc1ccc(C(C)C)c(N2C(=O)CS/C2=N\C(=O)Nc2ccc(NC(=O)c3ccc(OC(F)(F)F)cc3)cc2)c1 [Compound A48, (Z)—N-(4-(3-(3-(2-isopropyl-5-methylphenyl)-4-oxothiazolidin-2-ylidene)ureido)phenyl)-4-(trifluoromethoxy)benzamide] | 50 to 100% | 50 to 100% | A (80-100)
Cc1ccc(C(C)C)c(N2C(=O)CS/C2=N\C(=O)NCCc2ccc(NC(=S)Nc3ccc(OC(F)(F)F)cc3)cc2)c1 [Compound A46, (Z)-1-(3-(2-isopropyl-5-methylphenyl)-4-oxothiazolidin-2-ylidene)-3-(4-(3-(4-(trifluoromethoxy)phenyl)thioureido)phenethyl)urea] | 50 to 100% | 50 to 100% | A (80-100)
Cc1ccc(OCC(F)(F)F)c(N2C(=O)CS/C2=N\C(=O)NCCc2ccc(NC(=O)Nc3ccc(OC(F)(F)F)cc3)cc2)c1 [Compound A19, (Z)-1-(4-(2-(3-(3-(5-Methyl-2-(2,2,2-trifluoroethoxy)phenyl)-4-oxothiazolidin-2-ylidene)ureido)ethyl)phenyl)-3-(4-(trifluoromethoxy)phenyl)urea] | 50 to 100% | 50 to 100% | B (More than 0-Less than 80)
CC(C)c1ccc(Cl)cc1N1C(=O)CS/C1=N\C(=O)NCCc1ccc(NC(=O)Nc2ccc(OC(F)(F)F)cc2)cc1 [Compound A15, (Z)-1-(4-(2-(3-(3-(5-Chloro-2-isopropylphenyl)-4-oxothiazolidin-2-ylidene)ureido)ethyl)phenyl)-3-(4-(trifluoromethoxy)phenyl)urea] | 50 to 100% | 50 to 100% | A (80-100)
CC(Cc1ccc(NC(=O)Nc2ccc(OC(F)(F)F)cc2)cc1)NC(=O)/N=C1\SCC(=O)N1c1cccc2c1CCCC2 (stereo not drawn) [Compound A42, (Z)-1-(4-(2-(3-(4-Oxo-3-(5,6,7,8-tetrahydronaphthalen-1-yl)thiazolidin-2-ylidene)ureido)propyl)phenyl)-3-(4-(trifluoromethoxy)phenyl)urea] | 50 to 100% | 50 to 100% | A (80-100)
Cc1ccc(C(C)C)c(N2C(=O)CS/C2=N\C(=O)NC(C)Cc2ccc(NC(=O)Nc3ccc(OC(F)(F)F)cc3)cc2)c1 (stereo not drawn) [Compound A26, (Z)-1-(3-(2-Isopropyl-5-methylphenyl)-4-oxothiazolidin-2-ylidene)-3-(1-(4-(3-(4-(trifluoromethoxy)phenyl)ureido)phenyl)propan-2-yl)urea] | 50 to 100% | 50 to 100% | A (80-100)
CC(Cc1ccc(NC(=O)Nc2ccc(OC(F)(F)F)cc2)cc1)NC(=O)/N=C1\SCC(=O)N1c1cc(Cl)ccc1OC(F)(F)F (stereo not drawn) [Compound A36, (Z)-1-(4-(2-(3-(3-(5-Chloro-2-(trifluoromethoxy)phenyl)-4-oxothiazolidin-2-ylidene)ureido)propyl)phenyl)-3-(4-(trifluoromethoxy)phenyl)urea] | 50 to 100% | 50 to 100% | A (80-100)
